Assay results taken from patent US12331054B2, “Perk inhibiting imidazolopyrazine compounds” (HiberCell, Inc., priority 2019, dated 2025).

What was measured:
[1] = tested on: eIF2α in HEK293-EGFP-eIF2α cells; assay: PERK Cellular Assay (HEK293-EGFP-eIF2α cells, tunicamycin-induced ER stress, TR-FRET); type: cell-based; details: tunicamycin 2 hours
Experimental: Stable cell lines were created in HEK293 cells using lentiviral particles harboring an expression vector for GFP-eIF2α. Cells were selected using puromycin and enriched using fluorescence activated cell sorting against GFP. HEK293-EGFP-eIF2α cells were plated at 5000 cells/well in 384-well assay plates and incubated overnight at 37° C., 5% CO2. Inhibitor compounds were added to the wells by Echo acoustic dispensing and incubated for 30 minutes at 37° C., 5% CO2 prior to induction of ER stress by addition of tunicamycin to […] for 2 hours. Cells were lysed and TR-FRET was measured in an EnVision plate reader (PerkinElmer). FRET ratio data was normalized to signal from lysates treated with DMSO vehicle control and plotted as percent inhibition against 10-point; 3-fold dilution series of inhibitors. IC50 values were calculated using 4-parameter logistical fitting in XLFit.

[2] = biological target: Recombinant human EIF2AK3 (PERK) catalytic domain (amino acids 536-1116) (Homo sapiens (Human), UniProt Q9NZJ5); assay: PERK In Vitro Activity Assay (isolated), TR-FRET kinase assay; details: isolated PERK enzyme, 1.5 μM ATP, read-out: Biochemical IC50
Description: PERK In Vitro Activity Assay (isolated):
In vitro Inhibition of PERK Enzyme Activity (isolated) Recombinant human EIF2AK2 (PKR) catalytic domain (amino acids 252-551), EIF2AK3 (PERK) catalytic domain (amino acids 536-1116), GFP-eIF2a substrate, and Terbium-labelled phospho-eIF2a antibody is obtained (Invitrogen, Carlsbad, CA).
Express and purify HIS-SUMO-GCN2 catalytic domain (amino acids 584-1019) from E. coli. Perform TR-FRET kinase assays in the absence or presence of inhibitors in a reaction buffer consisting of 50 mM HEPES, pH 7.5, 10 mM MgCb, 1.0 mM EGTA, and 0.01% Brij-35, and 100-200 nM GFP-eIF2a substrate. […] Add test compound, initiate the reaction by addition of enzyme, and incubate at room temperature for 45 minutes. Stop the reaction by addition of EDTA to a final concentration of 10 mM, add Terbium-labelled phospho-eIF2a antibody at a final concentration of 2 nM, and incubate for 90 minutes. Monitor the resulting fluorescence in an EnVison® Multilabel reader (PerkinElmer, Waltham, MA). Determine TR-FRET ratios and the resulting IC50 values using a 4-parameter nonlinear logistic equation as shown: Y=(A+((B−A)/(1+(C/x)AD)))) where, Y=% specific inhibition, A=Bottom of the curve, B=Top of the curve, C=absolute IC50 (concentration causing 50% inhibition), and D=hill slope.

Recombinant human EIF2AK3 (PERK) catalytic domain (amino acids 536-1116), sequence (Q9NZJ5 536-1116): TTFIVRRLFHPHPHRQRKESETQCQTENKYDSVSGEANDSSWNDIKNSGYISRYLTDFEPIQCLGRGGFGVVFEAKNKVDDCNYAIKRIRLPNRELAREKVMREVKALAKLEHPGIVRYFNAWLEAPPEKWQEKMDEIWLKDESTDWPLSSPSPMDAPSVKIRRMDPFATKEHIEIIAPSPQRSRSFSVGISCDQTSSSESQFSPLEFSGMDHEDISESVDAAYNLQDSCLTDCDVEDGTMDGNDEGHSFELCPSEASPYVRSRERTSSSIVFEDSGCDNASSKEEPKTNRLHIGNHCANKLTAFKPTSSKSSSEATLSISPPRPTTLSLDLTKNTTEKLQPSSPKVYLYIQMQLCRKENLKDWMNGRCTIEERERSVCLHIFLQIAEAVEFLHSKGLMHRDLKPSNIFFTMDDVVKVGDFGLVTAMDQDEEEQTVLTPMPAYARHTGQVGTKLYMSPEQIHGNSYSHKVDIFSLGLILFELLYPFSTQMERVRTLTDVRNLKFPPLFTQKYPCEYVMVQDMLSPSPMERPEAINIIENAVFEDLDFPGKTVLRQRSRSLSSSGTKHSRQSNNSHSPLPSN

Row | Compound | IC50 [2] [nM] | IC50 [1] [nM]
1 | [2H]C([2H])([2H])c1nc(-c2ccc(NC(=O)C(O)c3cccc(C(F)(F)F)c3)cc2C)c2c(N)ncc(C)n12 (stereo not shown) [Example 16, N-[4-[8-amino-5-methyl-3-(trideuteriomethyl)imidazo[1,5-a]pyrazin-1-yl]-3-methyl-phenyl]-2-hydroxy-2-[3-(trifluoromethyl)phenyl]acetamide] | 1000 to 2000 | > 5000
2 | [2H]C([2H])([2H])c1nc(-c2ccc(NC(=O)C(O)c3cccc(C(F)(F)F)c3)cc2C)c2c(N)ncc(C(F)(F)F)n12 (stereo not shown) [Example 21, N-[4-[8-amino-3-(trideuteriomethyl)-5-(trifluoromethyl)imidazo[1,5-a]pyrazin-1-yl]-3-methyl-phenyl]-2-hydroxy-2-[3-(trifluoromethyl)phenyl]acetamide] | 51 to 100 | 501 to 1000
3 | [2H]C([2H])([2H])c1nc(-c2ccc(NC(=O)C(O)c3cccc(F)c3)cc2C)c2c(N)ncc(C(F)(F)F)n12 (stereo not shown) [Example 30, N-[4-[8-amino-3-(trideuteriomethyl)-5-(trifluoromethyl)imidazo[1,5-a]pyrazin-1-yl]-3-methyl-phenyl]-2-(3-fluorophenyl)-2-hydroxy-acetamide] | 1 to 25 | 1 to 25
4 | [2H]C([2H])([2H])c1nc(-c2ccc(NC(=O)C(O)c3cccc(F)c3)cc2C)c2c(N)ncc(C(F)(F)F)n12 (stereo not shown) [Example 31, N-[4-[8-amino-3-(trideuteriomethyl)-5-(trifluoromethyl)imidazo[1,5-a]pyrazin-1-yl]-3-methyl-phenyl]-2-(3-fluorophenyl)-2-hydroxy-acetamide] | 1 to 25 | 251 to 500
5 | [2H]C([2H])([2H])c1nc(-c2ccc(NC(=O)C(O)c3cccc(F)c3)cc2C)c2c(N)ncc(Cl)n12 (stereo not shown) [Example 32, N-[4-[8-amino-5-chloro-3-(trideuteriomethyl)imidazo[1,5-a]pyrazin-1-yl]-3-methyl-phenyl]-2-(3-fluorophenyl)-2-hydroxy-acetamide] | 1 to 25 | 1 to 25
6 | [2H]C([2H])([2H])c1nc(-c2ccc(NC(=O)C(O)c3cccc(F)c3)cc2C)c2c(N)ncc(Cl)n12 (stereo not shown) [Example 33, N-[4-[8-amino-5-chloro-3-(trideuteriomethyl)imidazo[1,5-a]pyrazin-1-yl]-3-methyl-phenyl]-2-(3-fluorophenyl)-2-hydroxy-acetamide] | 1 to 25 | 51 to 100
7 | [2H]C([2H])([2H])c1nc(-c2ccc(NC(=O)C(O)c3cccc(Cl)c3)cc2C)c2c(N)nc(C)cn12 (stereo not shown) [Example 34, N-[4-[8-amino-6-methyl-3-(trideuteriomethyl)imidazo[1,5-a]pyrazin-1-yl]-3-methyl-phenyl]-2-(3-chlorophenyl)-2-hydroxy-acetamide] | 1 to 25 | 26 to 50
8 | [2H]C([2H])([2H])c1nc(-c2ccc(NC(=O)C(O)c3cccc(Cl)c3)cc2C)c2c(N)nc(C)cn12 (stereo not shown) [Example 35, N-[4-[8-amino-6-methyl-3-(trideuteriomethyl)imidazo[1,5-a]pyrazin-1-yl]-3-methyl-phenyl]-2-(3-chlorophenyl)-2-hydroxy-acetamide] | 101 to 250 | 1000 to 2000
9 | [2H]C([2H])([2H])c1nc(-c2ccc(NC(=O)C(O)c3cccc(Cl)c3)cc2C)c2c(N)ncc(C)n12 (stereo not shown) [Example 36, N-[4-[8-amino-5-methyl-3-(trideuteriomethyl)imidazo[1,5-a]pyrazin-1-yl]-3-methyl-phenyl]-2-(3-chlorophenyl)-2-hydroxy-acetamide] | 1 to 25 | 1 to 25
10 | [2H]C([2H])([2H])c1nc(-c2ccc(NC(=O)C(O)c3cccc(Cl)c3)cc2C)c2c(N)ncc(C)n12 (stereo not shown) [Example 37, N-[4-[8-amino-5-methyl-3-(trideuteriomethyl)imidazo[1,5-a]pyrazin-1-yl]-3-methyl-phenyl]-2-(3-chlorophenyl)-2-hydroxy-acetamide] | 1 to 25 | 51 to 100
11 | Cc1cc(NC(=O)C(O)c2cccc(Cl)c2)ccc1-c1nc(C)n2c(C)cnc(N)c12 (stereo not shown) [Example 38, N-(4-(8-amino-3,5-dimethylimidazo [1,5-a]pyrazin-1-yl)-3-methyl-phenyl)-2-(3-chlorophenyl)-2-hydroxyacetamide] | 1 to 25 | 1 to 25
12 | Cc1cc(NC(=O)C(O)c2cccc(Cl)c2)ccc1-c1nc(C)n2c(C)cnc(N)c12 (stereo not shown) [Example 39, N-(4-(8-amino-3,5-dimethylimidazo [1,5-a]pyrazin-1-yl)-3-methyl-phenyl)-2-(3-chlorophenyl)-2-hydroxyacetamide] | 1 to 25 | 101 to 250
13 | [2H]C([2H])([2H])c1nc(-c2ccc(NC(=O)C(O)c3cccc(Cl)c3)cc2C)c2c(N)ncc(Cl)n12 (stereo not shown) [Example 42, N-[4-[8-amino-5-chloro-3-(trideuteriomethyl)imidazo[1,5-a]pyrazin-1-yl]-3-methyl-phenyl]-2-(3-chlorophenyl)-2-hydroxy-acetamide] | 1 to 25 | 1 to 25
14 | [2H]C([2H])([2H])c1nc(-c2ccc(NC(=O)C(O)c3cccc(Cl)c3)cc2C)c2c(N)ncc(Cl)n12 (stereo not shown) [Example 43, N-[4-[8-amino-5-chloro-3-(trideuteriomethyl)imidazo[1,5-a]pyrazin-1-yl]-3-methyl-phenyl]-2-(3-chlorophenyl)-2-hydroxy-acetamide] | 1 to 25 | 26 to 50
15 | [2H]C([2H])([2H])c1nc(-c2ccc(NC(=O)C(O)c3cc(F)cc(F)c3)cc2C)c2c(N)nc(C)cn12 (stereo not shown) [Example 44, N-[4-[8-amino-6-methyl-3-(trideuteriomethyl)imidazo[1,5-a]pyrazin-1-yl]-3-methyl-phenyl]-2-(3,5-difluoro-phenyl)-2-hydroxy-acetamide] | 1 to 25 | 101 to 250

Continued, in another order:

Row | IC50 [2] [nM] | Compound | IC50 [1] [nM]
16 | 1 to 25 | [2H]C([2H])([2H])c1nc(-c2ccc(NC(=O)C(O)c3cccc(C(F)(F)F)c3)cc2C)c2c(N)ncc(C)n12 (stereo not shown) [Example 17, N-[4-[8-amino-5-methyl-3-(trideuteriomethyl)imidazo[1,5-a]pyrazin-1-yl]-3-methyl-phenyl]-2-hydroxy-2-[3-(trifluoromethyl)phenyl]acetamide] | 101 to 250
17 | 1 to 25 | [2H]C([2H])([2H])c1nc(-c2ccc(NC(=O)C(O)c3cccc(C(F)(F)F)c3)cc2C)c2c(N)ncc(Cl)n12 (stereo not shown) [Example 18, N-[4-[8-amino-5-chloro-3-(trideuteriomethyl)imidazo[1,5-a]pyrazin-1-yl]-3-methyl-phenyl]-2-hydroxy-2-[3-(trifluoromethyl)phenyl]acetamide] | 1 to 25
18 | 1 to 25 | [2H]C([2H])([2H])c1nc(-c2ccc(NC(=O)C(O)c3cccc(C(F)(F)F)c3)cc2C)c2c(N)ncc(Cl)n12 (stereo not shown) [Example 19, N-[4-[8-amino-5-chloro-3-(trideuteriomethyl)imidazo[1,5-a]pyrazin-1-yl]-3-methyl-phenyl]-2-hydroxy-2-[3-(trifluoromethyl)phenyl]acetamide] | 26 to 50
19 | 1 to 25 | [2H]C([2H])([2H])c1nc(-c2ccc(NC(=O)C(O)c3cccc(C(F)(F)F)c3)cc2C)c2c(N)ncc(C(F)(F)F)n12 (stereo not shown) [Example 20, N-[4-[8-amino-3-(trideuteriomethyl)-5-(trifluoromethyl)imidazo[1,5-a]pyrazin-1-yl]-3-methyl-phenyl]-2-hydroxy-2-[3-(trifluoromethyl)phenyl]acetamide] | 26 to 50
20 | 1 to 25 | Cc1cc(NC(=O)C(O)c2cccc(F)c2)ccc1-c1nc(C)n2c(C(F)(F)F)cnc(N)c12 (stereo not shown) [Example 26, N-(4-(8-amino-3-methyl-5-(trifluoromethyl)imidazo[1,5-a]pyrazin-1-yl)-3-methylphenyl)-2-(3-fluorophenyl)-2-hydroxyacetamide] | 26 to 50
21 | 1 to 25 | Cc1cc(NC(=O)C(O)c2cccc(F)c2)ccc1-c1nc(C)n2c(C(F)(F)F)cnc(N)c12 (stereo not shown) [Example 27, N-(4-(8-amino-3-methyl-5-(trifluoromethyl)imidazo[1,5-a]pyrazin-1-yl)-3-methylphenyl)-2-(3-fluorophenyl)-2-hydroxyacetamide] | 251 to 500
22 | 1 to 25 | Cc1cc(NC(=O)C(O)c2cccc(F)c2)ccc1-c1nc(C)n2c(Cl)cnc(N)c12 (stereo not shown) [Example 28, N-(4-(8-amino-5-chloro-3-methylimidazo[1,5-a]pyrazin-1-yl)-3-methylphenyl)-2-(3-fluorophenyl)-2-hydroxyacetamide] | 1 to 25
23 | 1 to 25 | Cc1cc(NC(=O)C(O)c2cccc(F)c2)ccc1-c1nc(C)n2c(Cl)cnc(N)c12 (stereo not shown) [Example 29, N-(4-(8-amino-5-chloro-3-methylimidazo[1,5-a]pyrazin-1-yl)-3-methylphenyl)-2-(3-fluorophenyl)-2-hydroxyacetamide] | 26 to 50
